{"source": "paper PMC7153278", "about": "“Discovery of Membrane-Bound Pyrophosphatase Inhibitors Derived from an Isoxazole Fragment” (ACS Medicinal Chemistry Letters, 2020)"}
{"molecular_target": "Thermotoga maritima mPPase (TmPPase) (Thermotoga maritima, UniProt Q9S5X0)", "sequence (Q9S5X0 whole entry)": "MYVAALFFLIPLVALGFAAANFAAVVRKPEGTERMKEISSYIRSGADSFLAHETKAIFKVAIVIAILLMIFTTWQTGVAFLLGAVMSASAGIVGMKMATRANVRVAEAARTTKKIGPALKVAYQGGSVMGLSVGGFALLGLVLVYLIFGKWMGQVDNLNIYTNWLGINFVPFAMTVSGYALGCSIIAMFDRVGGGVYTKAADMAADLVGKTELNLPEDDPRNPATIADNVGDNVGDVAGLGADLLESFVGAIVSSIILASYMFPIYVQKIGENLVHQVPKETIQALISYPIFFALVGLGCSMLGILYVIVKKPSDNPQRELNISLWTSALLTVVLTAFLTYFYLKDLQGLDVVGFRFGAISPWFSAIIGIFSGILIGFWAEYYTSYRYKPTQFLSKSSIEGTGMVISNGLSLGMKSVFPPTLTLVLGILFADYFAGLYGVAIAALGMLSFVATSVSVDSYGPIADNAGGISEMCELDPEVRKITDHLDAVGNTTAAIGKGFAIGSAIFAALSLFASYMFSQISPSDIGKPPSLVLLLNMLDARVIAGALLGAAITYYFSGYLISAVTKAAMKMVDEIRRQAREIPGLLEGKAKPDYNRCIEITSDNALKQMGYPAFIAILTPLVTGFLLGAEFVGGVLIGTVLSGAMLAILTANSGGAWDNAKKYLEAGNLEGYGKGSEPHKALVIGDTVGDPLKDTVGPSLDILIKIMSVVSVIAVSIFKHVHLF", "experiment": "TmPPase inhibition assay (96-well plate, orthophosphate determination)", "assay_type": "biochemical", "conditions": "2-bromophenyl carboxylates 25 and 26 versus 5 and 23; call rule not given here", "protocol": "(§1) The inhibition assay was measured in 96 well plate assay as previously reported.5,6 Briefly, 1 µL of purified TmPPase (13 mg/mL) was reactivated in 99 µL of reactivation buffer (20 mM 2-(N-morpholino) ethanesulfonic acid (MES) pH 6.5, 3.5% (v/v) glycerol, 2 mM dithiothreitol (DTT), 4.5% dodecyl maltoside (DDM) and 12 mg/mL L-α-phosphatidylcholine from soybean) and incubated at 55 °C for 15 min. For the assay, to each tube strips, 0.2 µL of the reactivated enzyme was added to 14.8 µL of reaction buffer (200 mM Tris-Cl pH 8.0, 8.0 mM MgCl2, 333 mM KCl, and 67 mM NaCl) and 25 µL of inhibitor. The reaction mixtures were sealed with an adhesive sealing sheet (Thermo Scientific) and incubated at 71 °C for 5 min. The reactions were started with the addition of 10 µL of 2 mM sodium pyrophosphate, further incubation at 71 °C for 5 min and stopped by placing the reaction mixtures on ice for 10 min. The color development was done with the addition of ammonium heptamolybdate + ascorbic acid solution on ice for 10 min and then 90 µL of arsenic solution, at room temperature, for a minimum of 30 min. 180 µL of each reaction mixtures was then transferred into a clear 96 well polystyrene microplate and the absorbance was measured at 860 nm using a microplate spectrophotometer (MultiSkan Go, Thermo Scientific). The pilot inhibitor screening of 16 phosphate-mimicking fragments was done at 100 μM inhibitor concentration. Further screening was done with three different concentrations; 1 μM, 5 μM and 50 μM for soluble compounds, and 1 μM, 5 μM, and 20 μM for sparingly soluble compounds.6 The best hits were validated using 8 concentrations in triplicate in TmPPase.\n(§2) The potent hits 12k and 12l compounds were then tested on the P. falciparum (PfPPase-VP1) membrane fractions expressed in baculovirus-infected insect cells (the expression method and further enzyme analysis will be described in more detail elsewhere). Briefly, to each tube strips, 2.4 µL of PfPPase-VP1 membrane fraction (5 mg/mL) was added into 12.6 µL of reaction buffer (200 mM Tris-Cl pH 8.0, 8.0 mM MgCl2, 333 mM KCl, 67 mM NaCl, 3.3 mM NaF, and 17 μM Gramicidin D) and 25 µL of inhibitor. The reaction mixtures were incubated at 30 °C for 5 min and the assay was started by the addition of 10 µL of 2 mM sodium pyrophosphate and further incubation at 30 °C for 10 min. The reaction termination and color development were done as before.\n(§3) The in vitro anti-plasmodial activity assay strain 3D7 was maintained in culture as described previously.7 Briefly, parasites were cultured in O+ human erythrocytes at 5% haematocrit in RPMI - 1640 medium supplemented with 0.5% Albumax II (Gibco, Carlsbad, CA, USA), 200 μM hypoxanthine (Sigma, St. Louis, MO, USA) and 20 μg/mL gentamycin (Gibco). Parasites were synchronized with the sorbitol method as described. 8 Test compound was dissolved in DMSO to make a stock solution of 10 mM. Two -fold serial dilutions of the test compound were made in the culture medium to cover the range of 400 µM – 400 nM. Fifty microliters of each dilution were mixed in 96 well plate with 150 µL of 2% haematocrit of 0.5% parasitemia (ring stage). DMSO concentration in the highest compound concentration w as 0.1%. After 72 h incubation at 37 °C, the parasite growth was quantified using fluorescent SYBR Green I ® -based assay as described. 9 The half-maximal inhibitory concentration (IC 50) of the test compound was assessed using the non-linear regression fit model in Prism 7 (GraphPad Software). The potent anti-malarial drug, artemisinin, was use in parallel as a positive control. Each concentration of the test compound was tested in duplicate and the assay was repeated three times. The mean and standard deviation of the three repeats were used to estimate the IC50.\n(§4) IC50 determinations were done using R 3.6.110 and the n-parameter logistic regression (nplr) package11 version 0.1-7. In this package, the weighted nplr, given x (compound concentrations) and […]", "units": {"fold loss in activity compared to the carboxylic acids": "fold"}}
{"smiles": "Cc1nc(-c2cc(C(=O)Oc3ccccc3Br)no2)cs1", "note": "[Compound 25]", "fold loss in activity compared to the carboxylic acids": 27}
{"molecular_target": "Thermotoga maritima mPPase (TmPPase) (Thermotoga maritima, UniProt Q9S5X0)", "experiment": "TmPPase inhibition assay (96-well plate, orthophosphate determination)", "assay_type": "biochemical", "conditions": "IC50 [CI95%] (µM), purified TmPPase; unrounded values of the molecular formula strings file", "protocol": "as §1, §2, §3, §4", "units": {"IC50": "µM"}}
{"smiles": "CC(C)(C)c1cc(C(=O)OCCN2CCOCC2)cc(C(C)(C)C)c1", "note": "[SI-49]", "IC50": 340}
{"smiles": "CCOC(=O)c1cc(-c2ccc(OC)c(S(=O)(=O)Nc3ccc(F)c(Cl)c3)c2)on1", "note": "[SI-31]", "IC50": 58}
{"molecular_target": "Thermotoga maritima mPPase (TmPPase) (Thermotoga maritima, UniProt Q9S5X0)", "experiment": "TmPPase inhibition assay (96-well plate, orthophosphate determination)", "assay_type": "biochemical", "conditions": "IC50 [CI95%], purified TmPPase; 95% confidence interval in square brackets", "protocol": "as §1, §2, §3, §4", "units": {"IC50": "µM"}}
{"smiles": "CC(C)(C)c1cc(C(=O)OCCN2CCOCC2)cc(C(C)(C)C)c1", "note": "[SI-49]", "IC50": 340}
{"smiles": "CCOC(=O)c1cc(-c2ccc(OC)c(S(=O)(=O)Nc3ccc(F)c(Cl)c3)c2)on1", "note": "[SI-31]", "IC50": 58}
{"molecular_target": "Thermotoga maritima mPPase (TmPPase) (Thermotoga maritima, UniProt Q9S5X0)", "experiment": "TmPPase inhibition assay (96-well plate, orthophosphate determination)", "assay_type": "biochemical", "conditions": "TmPPase", "protocol": "as §1, §2, §3, §4"}
{"smiles": "Cc1cc(C)cc(-c2cc(C(=O)Nc3ccccc3Br)no2)c1", "note": "[Compound 28]", "biological activity (in words)": "inactive"}
{"smiles": "O=C(O)c1cc(-c2cc(C(F)(F)F)cc(C(F)(F)F)c2)on1", "note": "[Compound 11m]", "biological activity (in words)": "did not lead to the desired activity"}
{"smiles": "Cc1c(-c2cc(C(=O)O)no2)cnn1C", "note": "[Compound 6]", "biological activity (in words)": "lacked biological activity"}
{"smiles": "O=C(O)c1cc(-c2ccc([N+](=O)[O-])cc2)on1", "note": "[Compound 11h]", "biological activity (in words)": "did not lead to the desired activity"}
{"smiles": "O=C(O)c1cc(-c2ccccc2)on1", "note": "[Compound 11a]", "biological activity (in words)": "inactive"}
{"smiles": "O=C(O)c1cc(-c2cccc(-c3cc(C(=O)O)no3)c2)on1", "note": "[Compound 11n]", "biological activity (in words)": "neither the carboxylic acid 11n nor the ester 10n were notably active"}
{"molecular_target": "Thermotoga maritima mPPase (TmPPase) (Thermotoga maritima, UniProt Q9S5X0)", "experiment": "TmPPase inhibition assay (96-well plate, orthophosphate determination)", "assay_type": "biochemical", "conditions": "computed using the pIC50 and the Heavy Atom Count (LEHA) normalization method, Discovery Studio", "protocol": "as §1, §2, §3, §4"}
{"smiles": "CC(C)(C)c1cc(C(=O)Nc2nccs2)cc(C(C)(C)C)c1", "note": "[Compound 13]", "LE (ligand efficiency)": 0.20}
{"smiles": "Cc1cccc(-c2cc(C(=O)Oc3ccccc3Br)no2)c1", "note": "[Compound 12i]", "LE (ligand efficiency)": 0.23}
{"smiles": "CC(C)(C)c1cccc(-c2cc(C(=O)Oc3ccccc3Br)no2)c1", "note": "[Compound 12j]", "LE (ligand efficiency)": 0.20}
{"molecular_target": "Thermotoga maritima mPPase (TmPPase) (Thermotoga maritima, UniProt Q9S5X0)", "experiment": "TmPPase inhibition assay (96-well plate, orthophosphate determination)", "assay_type": "biochemical", "conditions": "purified TmPPase; 95% confidence interval in square brackets", "protocol": "as §1, §2, §3, §4"}
{"smiles": "CCOC(=O)c1cc(-c2ccc(OC)c(S(=O)(=O)Nc3ncccc3C)c2)on1", "note": "[SI-18]", "IC50 [CI95%]": "Inactive"}
{"smiles": "CC(=O)Nc1ccc(S(=O)(=O)NC(CO)C(=O)O)cc1", "note": "(stereo not drawn) [SI-10]", "IC50 [CI95%]": "Inactive"}
{"smiles": "Nc1ccc(CO)c(B(O)O)c1", "note": "[SI-1]", "IC50 [CI95%]": "Inactive"}
{"smiles": "O=C(O)CN1C(=O)c2ccccc2S1(=O)=O", "note": "[SI-9]", "IC50 [CI95%]": "Inactive"}
{"smiles": "Nc1ccc(S(=O)(=O)NC2=NCCS2)cc1", "note": "[SI-2]", "IC50 [CI95%]": "Inactive"}
{"smiles": "COc1ccc(-c2cc(C(=O)O)no2)cc1S(=O)(=O)N1CCOCC1", "note": "[SI-24]", "IC50 [CI95%]": "Inactive"}
{"smiles": "CCOC(=O)c1cc(-c2ccc(OC)c(S(=O)(=O)N3CCCc4ccccc43)c2)on1", "note": "[SI-20]", "IC50 [CI95%]": "Inactive"}
{"smiles": "CC(C)(C)c1cc(CCC(=O)O)cc(C(C)(C)C)c1", "note": "[Compound 20]", "IC50 [CI95%]": "Inactive"}
{"smiles": "CS(=O)(=O)Nc1ccc(C#N)cc1", "note": "[SI-12]", "IC50 [CI95%]": "Inactive"}
{"smiles": "CCOC(=O)c1cc(-c2ccc(OC)c(S(=O)(=O)N3CCCC3)c2)on1", "note": "[SI-27]", "IC50 [CI95%]": "Inactive"}
{"smiles": "CCOC(=O)c1cc(-c2ccc([N+](=O)[O-])cc2)[nH]n1", "note": "[SI-51]", "IC50 [CI95%]": "Inactive"}
{"smiles": "Cc1c(-c2cc(C(=O)O)no2)cnn1C", "note": "[Compound 6]", "IC50 [CI95%]": "Inactive"}
{"smiles": "CC(C)(C)c1cc(CO)cc(C(C)(C)C)c1", "note": "[SI-46]", "IC50 [CI95%]": "Inactive"}
{"smiles": "CC(C)(C)c1cc(C(N)=O)cc(C(C)(C)C)c1", "note": "[SI-43]", "IC50 [CI95%]": "Inactive"}
{"smiles": "CC(C)(C)c1cc(C(O)CC(=O)NN)cc(C(C)(C)C)c1", "note": "(stereo not drawn) [SI-44]", "IC50 [CI95%]": "Inactive"}
{"smiles": "O=C1CS(=O)(=O)c2ccccc21", "note": "[SI-7]", "IC50 [CI95%]": "Inactive"}
{"smiles": "Nc1ccc(S(=O)(=O)NCC(=O)O)cc1", "note": "[SI-8]", "IC50 [CI95%]": "Inactive"}
{"smiles": "CC(C)(C)c1cc(C(=O)NCC(=O)O)cc(C(C)(C)C)c1", "note": "[Compound 19]", "IC50 [CI95%]": "Inactive"}
{"smiles": "CCOC(=O)c1cc(-c2csc(CS(C)(=O)=O)n2)on1", "note": "[SI-13]", "IC50 [CI95%]": "Inactive"}
{"smiles": "O=C(O)c1cc(-c2ccc([N+](=O)[O-])cc2)[nH]n1", "note": "[Compound 22]", "IC50 [CI95%]": "Inactive"}
{"smiles": "CCOC(=O)c1cc(-c2ccc(C(=O)OC)cc2)on1", "note": "[Compound 10d]", "IC50 [CI95%]": "Inactive"}
{"smiles": "CCOC(=O)c1cc(-c2ccccc2)on1", "note": "[Compound 10a]", "IC50 [CI95%]": "Inactive"}
{"smiles": "CCOC(=O)c1cc(-c2ccccc2)[nH]n1", "note": "[SI-50]", "IC50 [CI95%]": "Inactive"}
{"smiles": "CC(C)(C)c1cc(CN)cc(C(C)(C)C)c1", "note": "[SI-45]", "IC50 [CI95%]": "Inactive"}
{"smiles": "O=C(Oc1ccccc1Br)c1cc(-c2ccc([N+](=O)[O-])cc2)[nH]n1", "note": "[SI-53]", "IC50 [CI95%]": "Slightly"}
